From patent publication US20230203026A1, “PESTICIDAL COMPOSITIONS AND METHODS” (CORTEVA AGRISCIENCE LLC, priority 2017, published 2023)

Assays:
[1] = test system: beet armyworm (Spodoptera exigua, LAPHEG) ("BAW"); test: Insecticidal test for beet armyworm, 128-well diet tray assay; format: in vivo; conditions: 168 h, 50 μg/cm^2 of test compound on artificial diet, second instar BAW larvae, 25° C., five to seven days, average of eight wells, read-out: BAW % Control (or Mortality) rating
Experimental: Insecticidal test for beet armyworm (Spodoptera exigua, LAPHEG) (“BAW”)
(§1) Bioassays on beet armyworm (BAW; Spodoptera exigua: Lepidoptera) are conducted using a 128-well diet tray assay. One to five second instar BAW larvae are placed in each well (3 mL) of the diet tray that had been previously filled with 1 mL of artificial diet to which 50 μg/cm^2 of the test compound (dissolved in 50 μL of 90:10 acetone-water mixture) had been applied (to each of eight wells) and then allowed to dry. Trays are covered with a clear self-adhesive cover, vented to allow gas exchange, and held at 25° C., 14:10 light-dark for five to seven days. Percent mortality is recorded for the larvae in each well; activity in the eight wells is then averaged.

[2] = test system: Cabbage Looper (Trichloplusia ni, TRIPNI) ("CL"); test: Insecticidal test for cabbage looper, 128-well diet tray assay; format: in vivo; conditions: Trichoplusia ni, 168 h; 50 μg/cm^2 of test compound on artificial diet; second instar CL larvae; 25° C.; five to seven days; average of eight wells; read-out: CL % Control (or Mortality) rating
Experimental: Insecticidal Test for Cabbage Looper (Trichloplusia ni, TRIPNI) (“CL”)
as §1, with “cabbage looper (CL; Trichloplusia ni:” for “beet armyworm (BAW; Spodoptera exigua:”, “CL” for “BAW”

Row | SMILES | mortality at 50 µg/cm2 [1] [%] | mortality at 50 µg/cm2 [2] [%]
1 | Cc1ccc(C(F)(F)F)c(N2C(=O)CS/C2=N\C(=O)NOC(C)c2ccc(-c3ncn(-c4ccc(OC(F)(F)F)cc4)n3)cc2)c1 (stereo not drawn) [A13, (Z)-1-(3-(5-Methyl-2-(trifluoromethyl)phenyl)-4-oxothiazolidin-2-ylidene)-3-(1-(4-(1-(4-(trifluoromethoxy)phenyl)-1H-1,2,4-triazol-3-yl)phenyl)ethoxy)urea] | 50 to 100 | 50 to 100
2 | COc1ccc(C(C)C)c(N2C(=O)CS/C2=N\C(=O)NOC(C)c2ccc(-c3ncn(-c4ccc(OC(F)(F)F)cc4)n3)cc2)c1 (stereo not drawn) [A14, (Z)-1-(3-(2-Isopropyl-5-methoxyphenyl)-4-oxothiazolidin-2-ylidene)-3-(1-(4-(1-(4-(trifluoromethoxy)phenyl)-1H-1,2,4-triazol-3-yl)phenyl)ethoxy)urea] | 50 to 100 | 50 to 100
3 | CCCc1ccc(OC)cc1N1C(=O)CS/C1=N\C(=O)NOC(C)c1ccc(-c2ncn(-c3ccc(OC(F)(F)F)cc3)n2)cc1 (stereo not drawn) [A15, (Z)-1-(3-(5-Methoxy-2-propylphenyl)-4-oxothiazolidin-2-ylidene)-3-(1-(4-(1-(4-(trifluoromethoxy)phenyl)-1H-1,2,4-triazol-3-yl)phenyl)ethoxy)urea] | 50 to 100 | 50 to 100
4 | COCc1ccc(C)cc1N1C(=O)CS/C1=N\C(=O)NOC(C)c1ccc(-c2ncn(-c3ccc(OC(F)(F)F)cc3)n2)cc1 (stereo not drawn) [A16, (Z)-1-(3-(2-(Methoxymethyl)-5-methylphenyl)-4-oxothiazolidin-2-ylidene)-3-(1-(4-(1-(4-(trifluoromethoxy)phenyl)-1H-1,2,4-triazol-3-yl)phenyl)ethoxy)urea] | 50 to 100 | 50 to 100
5 | Cc1ccc(C(C)C)c(N2C(=O)CS/C2=N\C(=O)NOC(C)c2ccc(-c3ncn(-c4ccc(OC(F)(F)F)cc4)n3)cc2)c1 (stereo not drawn) [A17, (Z)-1-(3-(2-Isopropyl-5-methylphenyl)-4-oxothiazolidin-2-ylidene)-3-(1-(4-(1-(4-(trifluoromethoxy)phenyl)-1H-1,2,4-triazol-3-yl)phenyl)ethoxy)urea] | 50 to 100 | 50 to 100
6 | CC(C)c1ccccc1N1C(=O)CS/C1=N\C(=O)NOC(C)c1ccc(-c2ncn(-c3ccc(OC(F)(F)F)cc3)n2)cc1 (stereo not drawn) [A18, (Z)-1-(3-(2-Isopropylphenyl)-4-oxothiazolidin-2-ylidene)-3-(1-(4-(1-(4-(trifluoromethoxy)phenyl)-1H-1,2,4-triazol-3-yl)phenyl)ethoxy)urea] | 50 to 100 | 50 to 100
7 | Cc1ccc(OCC(F)(F)F)c(N2C(=O)CS/C2=N\C(=O)NOC(C)c2ccc(-c3ncn(-c4ccc(OC(F)(F)F)cc4)n3)cc2)c1 (stereo not drawn) [A19, (Z)-1-(3-(5-Methyl-2-(2,2,2-trifluoroethoxy)phenyl)-4-oxothiazolidin-2-ylidene)-3-(1-(4-(1-(4-(trifluoromethoxy)phenyl)-1H-1,2,4-triazol-3-yl)phenyl)ethoxy)urea] | 50 to 100 | 50 to 100
8 | CC(ONC(=O)/N=C1\SCC(=O)N1c1cc(Cl)ccc1OCC(F)(F)F)c1ccc(-c2ncn(-c3ccc(OC(F)(F)F)cc3)n2)cc1 (stereo not drawn) [A20, (Z)-1-(3-(5-Chloro-2-(2,2,2-trifluoroethoxy)phenyl)-4-oxothiazolidin-2-ylidene)-3-(1-(4-(1-(4-(trifluoromethoxy)phenyl)-1H-1,2,4-triazol-3-yl)phenyl)ethoxy)urea] | 50 to 100 | 50 to 100
9 | CC(C)c1ccc(Cl)cc1N1C(=O)CS/C1=N\C(=O)NOC(C)c1ccc(-c2ncn(-c3ccc(OC(F)(F)F)cc3)n2)cc1 (stereo not drawn) [A21, (Z)-1-(3-(5-Chloro-2-isopropylphenyl)-4-oxothiazolidin-2-ylidene)-3-(1-(4-(1-(4-(trifluoromethoxy)phenyl)-1H-1,2,4-triazol-3-yl)phenyl)ethoxy)urea] | 50 to 100 | 50 to 100
10 | Cc1ccc(Cl)c(N2C(=O)CS/C2=N\C(=O)NOCc2ccc(-c3ncn(-c4ccc(OC(F)(F)F)cc4)n3)cc2)c1 [A22, (Z)-1-(3-(2-Chloro-5-methylphenyl)-4-oxothiazolidin-2-ylidene)-3-((4-(1-(4-(trifluoromethoxy)phenyl)-1H-1,2,4-triazol-3-yl)benzyl)oxy)urea] | 50 to 100 | 50 to 100
11 | CCCc1ccc(OC)cc1N1C(=O)CS/C1=N\C(=O)NOCc1ccc(-c2ncn(-c3ccc(OC(F)(F)F)cc3)n2)cc1 [A23, (Z)-1-(3-(5-Methoxy-2-propylphenyl)-4-oxothiazolidin-2-ylidene)-3-((4-(1-(4-(trifluoromethoxy)phenyl)-1H-1,2,4-triazol-3-yl)benzyl)oxy)urea] | 50 to 100 | 50 to 100
12 | Cc1ccc(C(F)(F)F)c(N2C(=O)CS/C2=N\C(=O)NOCc2ccc(-c3ncn(-c4ccc(OC(F)(F)F)cc4)n3)cc2)c1 [A24, (Z)-1-(3-(5-Methyl-2-(trifluoromethyl)phenyl)-4-oxothiazolidin-2-ylidene)-3-((4-(1-(4-(trifluoromethoxy)phenyl)-1H-1,2,4-triazol-3-yl)benzyl)oxy)urea] | 50 to 100 | 50 to 100
13 | COc1ccc(CC(F)(F)F)c(N2C(=O)CS/C2=N\C(=O)NOCc2ccc(-c3ncn(-c4ccc(OC(F)(F)F)cc4)n3)cc2)c1 [A25, (Z)-1-(3-(5-Methoxy-2-(2,2,2-trifluoroethyl)phenyl)-4-oxothiazolidin-2-ylidene)-3-((4-(1-(4-(trifluoromethoxy)phenyl)-1H-1,2,4-triazol-3-yl)benzyl)oxy)urea] | 50 to 100 | 50 to 100
14 | COc1ccc(C(C)C)c(N2C(=O)CS/C2=N\C(=O)NOCc2ccc(-c3ncn(-c4ccc(OC(F)(F)F)cc4)n3)cc2)c1 [A26, (Z)-1-(3-(2-Isopropyl-5-methoxyphenyl)-4-oxothiazolidin-2-ylidene)-3-((4-(1-(4-(trifluoromethoxy)phenyl)-1H-1,2,4-triazol-3-yl)benzyl)oxy)urea] | 50 to 100 | 50 to 100
15 | COCc1ccc(C)cc1N1C(=O)CS/C1=N\C(=O)NOCc1ccc(-c2ncn(-c3ccc(OC(F)(F)F)cc3)n2)cc1 [A27, (Z)-1-(3-(2-(Methoxymethyl)-5-methylphenyl)-4-oxothiazolidin-2-ylidene)-3-((4-(1-(4-(trifluoromethoxy)phenyl)-1H-1,2,4-triazol-3-yl)benzyl)oxy)urea] | 50 to 100 | 50 to 100
16 | Cc1ccc(C(C)C)c(N2C(=O)CS/C2=N\C(=O)NOCc2ccc(-c3ncn(-c4ccc(OC(F)(F)F)cc4)n3)cc2)c1 [A28, (Z)-1-(3-(2-Isopropyl-5-methylphenyl)-4-oxothiazolidin-2-ylidene)-3-((4-(1-(4-(trifluoromethoxy)phenyl)-1H-1,2,4-triazol-3-yl)benzyl)oxy)urea] | 50 to 100 | 50 to 100
17 | CC(C)c1ccccc1N1C(=O)CS/C1=N\C(=O)NOCc1ccc(-c2ncn(-c3ccc(OC(F)(F)F)cc3)n2)cc1 [A29, (Z)-1-(3-(2-Isopropylphenyl)-4-oxothiazolidin-2-ylidene)-3-((4-(1-(4-(trifluoromethoxy)phenyl)-1H-1,2,4-triazol-3-yl)benzyl)oxy)urea] | 50 to 100 | 50 to 100
18 | Cc1ccc(OCC(F)(F)F)c(N2C(=O)CS/C2=N\C(=O)NOCc2ccc(-c3ncn(-c4ccc(OC(F)(F)F)cc4)n3)cc2)c1 [A30, (Z)-1-(3-(5-Methyl-2-(2,2,2-trifluoroethoxy)phenyl)-4-oxothiazolidin-2-ylidene)-3-((4-(1-(4-(trifluoromethoxy)phenyl)-1H-1,2,4-triazol-3-yl)benzyl)oxy)urea] | 50 to 100 | 50 to 100
19 | O=C(/N=C1\SCC(=O)N1c1cc(Cl)ccc1OCC(F)(F)F)NOCc1ccc(-c2ncn(-c3ccc(OC(F)(F)F)cc3)n2)cc1 [A31, (Z)-1-(3-(5-Chloro-2-(2,2,2-trifluoroethoxy)phenyl)-4-oxothiazolidin-2-ylidene)-3-((4-(1-(4-(trifluoromethoxy)phenyl)-1H-1,2,4-triazol-3-yl)benzyl)oxy)urea] | 50 to 100 | 50 to 100
20 | CC(C)c1ccc(Cl)cc1N1C(=O)CS/C1=N\C(=O)NOCc1ccc(-c2ncn(-c3ccc(OC(F)(F)F)cc3)n2)cc1 [A32, (Z)-1-(3-(5-Chloro-2-isopropylphenyl)-4-oxothiazolidin-2-ylidene)-3-((4-(1-(4-(trifluoromethoxy)phenyl)-1H-1,2,4-triazol-3-yl)benzyl)oxy)urea] | 50 to 100 | 50 to 100
21 | Cc1ccc(C(C)C)c(N2C(=O)CS/C2=N\C(=O)NOCc2ccc(-c3ncn(-c4ccc(OC(F)(F)C(F)(F)F)cc4)n3)cc2)c1 [A33, (Z)-1-(3-(2-Isopropyl-5-methylphenyl)-4-oxothiazolidin-2-ylidene)-3-((4-(1-(4-(perfluoroethoxy)phenyl)-1H-1,2,4-triazol-3-yl)benzyl)oxy)urea] | 50 to 100 | 50 to 100
